For series [1], the system named is γ-H2AX levels in MCF-7 cells. The experiment in a line: Western blotting of H2AX phosphorylation after irradiation. Format: cell-based, human. As to conditions: RS5033 10 μM, KDOAM-25 0.03 μM. The method, then:
Proteins were resolved on a 12% (histones) or 5% (JARID1B) denaturing polyacrylamide gel, using either 4 μg of histone preparation or 40 μg of cell lysate. After electrophoresis, proteins were transferred on a nitrocellulose membrane (Protran™ […] NC, # 10600002, GE Healthcare (Amersham™), Chicago, IL, USA) via wet transfer method using a Bio-Rad tank. Transfer efficiency was verified via ponceau staining (#P7767, Sigma-Aldrich). Filters were blocked with either milk (#70166, Sigma-Aldrich) or bovine serum albumin (#A3069, Sigma-Aldrich) and then hybridized over night at 4 °C in gentle rotation with the following antibodies: rabbit anti-H3K4me3 (1:1000, #39915, Active Motif, RRID:AB_2687512); rabbit-anti-H3K27me3 (1:1000, #9733, Cell Signaling Technology, RRID:AB_2616029); rabbit-anti- H3K9pan-methylated (1:1000, #4473, RRID:AB_10544693); rabbit-anti-H3 ([…], Cat#1791, ABCAM, RRID:AB_302613); rabbit anti-H2AX (1:1000, Cat#7631, Cell Signaling Technology, RRID:AB_10860771), rabbit anti-Phospho-H2AX (1:1000, Cat#9718, Cell Signaling Technology, RRID:AB_2118009), rabbit anti-JARID1B (1:50, Cell Signaling Technology, Cat#3273 RRID: AB_1264191). Goat-anti-Rabbit Horseradish Peroxidase conjugated (1:10,000, #31460, Thermo Fisher Scientific, Waltham, MA, USA RRID:AB_228341) was used as secondary antibody for 1 hour hybridization at room temperature. Blots were scanned and analyzed with a ChemiDoc XRS+ Imaging System (Bio-Rad). The volumes of each band of protein was acquired using Bio-Rad’s ImageLab software by means of volume tools using global quantification. The signal for each protein was normalized to the housekeeping protein and ratios with average control values were determined. For histones as loading control was used either total histone H3 detected by a specific antibody or histone H1 levels by staining the upper part of the gel properly cut before protein transfer on nitrocellulose membrane.
(In general: In western blotting, separated proteins are transferred to a membrane and probed.)

In series [2] the target is KDM5 enzymes. As to the kind of experiment: Enzymatic inhibition assay (Epigenase JARID Demethylase Activity/Inhibition Assay Kit, fluorometric). As to conditions: in vitro, toward KDM5 enzymes; This work. Format: biochemical. The protocol:
Inhibition by RS5033 (IC50) was determined by the Epigenase™ JARID Demethylase Activity/Inhibition Assay Kit (Fluorometric) (#P-3083-48 Epigentek, Farmingdale, NY, USA) which is a complete set of optimized reagents, designed for an easy and fast fluorometric measurement of JARID activity or inhibition. The antibody-based, immune-specific method directly detects JARID-converted demethylated products, rather than by- products, in a 96 stripwell microplate format.

In series [3] the test system is H3K27me3 levels in MCF-7 cells. As to the kind of experiment: Western blotting of H3K27me3 levels. Type of series: cell-based, human. The protocol:
Histone isolation was performed according to acid extraction of histones protocol of Shechter and colleagues. Histone concentration was determined by running 5 μL of samples and known concentrations of commercially available purified calf thymus histones (from Sigma Aldrich Cat. #000000010223565001) on a SDS-PAGE gel. The gel is stained with Coomassie blue G 250 (BIO-RAD Cat. #161-0786) for 1 hour at room temperature and then destained in distilled water. The gel image is acquired with ChemiDoc XRS+ Imaging System (Bio-Rad, Hercules, CA, USA) and the volumes of bands of the samples are compared to standard concentrations of calf thymus histone.
Proteins were resolved on a 12% (histones) or 5% (JARID1B) denaturing polyacrylamide gel, using either 4 μg of histone preparation or 40 μg of cell lysate. […] Blots were scanned and analyzed with a ChemiDoc XRS+ Imaging System (Bio-Rad). The volumes of each band of protein was acquired using Bio-Rad’s ImageLab software by means of volume tools using global quantification. The signal for each protein was normalized to the housekeeping protein and ratios with average control values were determined. For histones as loading control was used either total histone H3 detected by a specific antibody or histone H1 levels by staining the upper part of the gel properly cut before protein transfer on nitrocellulose membrane.

Series [4] deals with HeLa cells. Further details: method as in PMID 24489688. As to conditions: without affecting methylation of other lysins; cited from earlier work.
Series [5] has as its system MCF-7 cells. As to the kind of experiment: COMET assay (DNA damage). Format: cell-based, human. The note with it: MCF-7, sham-irradiated, 3 μM. The protocol: To test if the cytotoxic effects of KDM5 inhibitors on MCF-7 cells were related to an increase of DNA damage accumulation, we collected cells treated with the three KDM5 inhibitors or DMSO-treated control cells after one hour from irradiation with 3 Gy of ionizing radiation (or sham-irradiation). We then performed COMET assays to assess DNA damage.
The COMET assay was performed using the OxiSelect™ 96-Well Comet Assay Kit (Cell Biolabs, Inc., San Diego, CA, USA) following the manufacturer’s instruction manual (https://www.cellbiolabs.com/sites/default/files/STA-355-comet-assay-kit.pdf).

Series [6] deals with MCF-7 cells. As to the kind of experiment: RNA-seq differential gene expression. Type of series: cell-based, human. The note with it: MCF-7 treated with RS3195 10 μM.

Broadly, the IC50 is the concentration that inhibits the measured activity by half. The low end stands for higher potency, the high end for lower potency.

Regarding `CCOC(=O)c1ccccc1C(=O)c1cccc(NS(=O)(=O)c2ccc(OC)cc2)c1` [RS5033], the “ɤH2AX increase normalized to the amount of H2AX” value in series [1] (MCF-7, 6 Gy, 4-36 h) was “statistically significant at 4 h and 24 h”. Besides, in series [1] (MCF-7, sham-irradiated and irradiated (6 Gy) cells), the “amount of ɤH2AX” value is on record as “increases”. In series [2], this molecule came in with an IC50 of 1000 nM. Further, in series [3] (MCF-7, 24 h, three concentrations (1, 10, 30 μM)), the H3K27me3 levels result is listed as “decrease”. The “decrease of H3K27 tri-methylation” value in series [3] (MCF-7, highest concentration of inhibitor) is “about two-fold”.

On to `CCOC(=O)c1cccn1C(=O)c1cccc(NS(=O)(=O)c2ccc(OC)cc2)c1` [RS3195], for which, in series [4], the “H3K4 demethylation in HeLa cells” value is “decrease H3K4 demethylation”. The “cells with comet tail, sham-irradiated (intrinsic genotoxicity)” value in series [5] is “strong effect”. Besides, the “log2FoldChange AHRR” value in series [6] (gene AHRR) worked out at 2.438. In addition, the “log2FoldChange CYP1A1” value in series [6] (gene CYP1A1) is on record as 7.446. Moreover, the “log2FoldChange CYP1B1” value in series [6] (gene CYP1B1) is on record as 3.42. Moreover, the “log2FoldChange RPS3A” value in series [6] (gene RPS3A) is 2.088. Also, the “log2FoldChange TXNRD1” value in series [6] (gene TXNRD1) came to 1.608.

The values above are taken from publication PMC6540222, “Small Molecule Inhibitors of KDM5 Histone Demethylases Increase the Radiosensitivity of Breast Cancer Cells Overexpressing JARID1B” (Molecules, 2019).
